# Experimental data published in publication PMC7501730, “Discovery of novel small molecule inhibitors of S100P with in vitro anti-metastatic effects on pancreatic cancer cells” (European Journal of Medicinal Chemistry, 2020).
# Where two headings read alike, the source gives them in different places.
# Assays:
# [1] = target: T1, S100P-RAGE interaction (Homo sapiens, UniProt P25815); assay: ELISA of S100P-RAGE binding inhibition; settings: for ELISA inhibition: concentration with significant inhibition of S100P-RAGE binding, asterisks = significance by one-way ANOVA
# T1 construct: His tag (N); made in house; host or cells: Escherichia coli BL21*
# T1 sequence (P25815 1-95): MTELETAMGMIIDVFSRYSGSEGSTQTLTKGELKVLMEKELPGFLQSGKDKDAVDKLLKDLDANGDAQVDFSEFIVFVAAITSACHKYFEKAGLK
# Experimental: The purchased computational screening hits were subjected to initial biological testing for inhibition of S100P-RAGE binding (ELISA), with cromolyn as positive control, using an adaptation of the reported ELISA for S100 family members.
# Fig. 2 Effects of compounds 1–14 on S100P binding to RAGE. Human S100P (2 μM) coated wells were incubated with increasing concentrations of the compound tested, in triplicate, and exposed to human RAGE-Fc (100 nM) followed by goat anti-human secondary antibody to detect RAGE bound S100P. Data are compared to S100P/RAGE binding with no inhibitor (DMSO, 100%) and are presented as mean ± SEM; data is significant by one way ANOVA, where ∗ = p < 0.05, ∗∗ = p < 0.01 and ∗∗∗ = p < 0.001; n = 9 from 3 plates.
# To generate human S100P recombinant protein, a pQE-30 ([…]) plasmid encoding S100P with N-terminal histidine tags (gifted by Dr Igor Barsukov, Liverpool University, UK), was transformed into BL21∗ competent Escherichia coli cells. Recombinant protein was purified using a HisTrap Nickel-nitrilotriacetic acid (Ni-NTA) agarose column (GE Healthcare, UK).
# Purified recombinant S100P (2μM/well) in phosphate buffer (PBS; 137 mM NaCl, 2.7 mM KCl, 10 mM Na2HPO4, 1.8 mM KH2PO4, pH 7.4; supplemented with 1 mM CaCl2, 10 μM ZnCl2, and 0.5 mM MgCl2) was used for coating a 96 well plate (NunclonDelta, Fisher), and incubated overnight at 37 °C.
# Following washing, S100P non-specific binding sites were blocked with 1% bovine serum albumin (BSA; Fisher, UK) in PBS for 2 h at 37 °C. Following three washes, S100P was incubated with increasing concentrations of compounds, in parallel to cromolyn and DMSO treated wells, all in triplicate. Then 30 nM recombinant human receptor for advanced glycation end products (rh/RAGE-Fc; R&D Systems) was added and incubated for 1 h at 37 °C. Controls included a negative control (S100P protein, no RAGE-Fc), a positive control (S100P protein plus RAGE), and vehicle control (0.001% DMSO in PBS) were included in each plate. After three washes in PBS, all wells were exposed to goat anti-human HRP conjugate (1:1000; Millipore) for 1 h at 37 °C in order to detect bound receptors. Subsequent to washes, wells were incubated for 20 min in the dark with 3,3′,5,5′-tetramethylbenzidene (TMB) substrate (Sigma, UK). Plates were read at 450 nm using a Multiskan Ascent spectrophotometer (Fisher Scientific, UK). All sample readings were normalized to the positive control (S100P plus RAGE-Fc). Statistical analysis was performed and graphs plotted using the GraphPad Prism software in the following way: One Way ANOVA was used to compare the effects of concentration of each compound to the effects of vehicle control (DMSO), and p values of <0.05 were considered statistically significant. A post hoc analysis was conducted using Dunnetts multiple comparisons test; results are indicated by ∗ = p < 0.05; ∗∗ = p < 0.01 and ∗∗∗ = p < 0.001.
# [2] = Table 1, ELISA, human S100P 2 μM coated wells, human RAGE-Fc, read-out: Estimated IC50
Structure (SMILES),"IC50 [1, 2] [nM]",ELISA inhibition ([1]; Table 2),other results
COc1ccc(/C=C2/C(=O)NC(=O)N(c3ccc(Cl)c(Cl)c3)C2=O)cc1C(=O)O [Compound 3],,,IC50 [1]: 0.514 nM
"O=C(O)c1cccc(N2C(=O)C3C4c5ccccc5C([N+](=O)[O-])(c5ccccc54)C3C2=O)c1 (stereo not drawn) [Compound 4, 3-(9-Nitro-12,14-dioxo-9,10-dihydro-9,10-[3,4]epipyrroloanthracen-13-yl)benzoic acid]",22.7,10 nM∗∗,melting point: 271 to 272 °C; concentration with significant inhibition of S100P-RAGE binding ([1]; ELISA): ≥ 10 nM
"O=C1C2C3c4ccccc4C([N+](=O)[O-])(c4ccccc43)C2C(=O)N1c1cccc(F)c1 (stereo not drawn) [Compound 4b, 13-(3-fluorophenyl)-9-nitro-9,10-dihydro-9,10-[3,4]epipyrroloanthracene-12,14-dione]",,100 nM∗,melting point: 241 to 243 °C; concentration with significant inhibition of S100P-RAGE binding ([1]; ELISA): ≤ 100 nM
"O=C1C2C3c4ccccc4C([N+](=O)[O-])(c4ccccc43)C2C(=O)N1c1cccc(Cl)c1 (stereo not drawn) [Compound 4c, 13-(3-chlorophenyl)-9-nitro-9,10-dihydro-9,10-[3,4]epipyrroloanthracene-12,14-dione]",,– (no significant inhibition below 1 μM),
"O=C1C2C3c4ccccc4C([N+](=O)[O-])(c4ccccc43)C2C(=O)N1c1cccc([N+](=O)[O-])c1 (stereo not drawn) [Compound 4d, 9-Nitro-13-(3-nitrophenyl)-9,10-dihydro-9,10-[3,4]epipyrroloanthracene-12,14-dione]",,– (no significant inhibition below 1 μM),
"O=C1C2C3c4ccccc4C([N+](=O)[O-])(c4ccccc43)C2C(=O)N1c1ccccc1 (stereo not drawn) [Compound 4e, 9-Nitro-13-phenyl-9,10-dihydro-9,10-[3,4]epipyrroloanthracene-12,14-dione]",,– (no significant inhibition below 1 μM),
"O=C(O)c1ccc(N2C(=O)C3C4c5ccccc5C([N+](=O)[O-])(c5ccccc54)C3C2=O)cc1 (stereo not drawn) [Compound 4f, 4-(9-Nitro-12,14-dioxo-9,10-dihydro-9,10-[3,4]epipyrroloanthracen-13-yl)benzoic acid]",,<10 nM∗∗∗,"melting point: 344 to 345 °C; concentration with significant inhibition of S100P-RAGE binding ([1]; ELISA): ≤ 100 nM; IC50 ([1]; Table 2, ELISA, analog series of hit 4, read-out: Estimated IC50): 0.482 nM"
"O=C1C2C3c4ccccc4C([N+](=O)[O-])(c4ccccc43)C2C(=O)N1c1ccc(F)cc1 (stereo not drawn) [Compound 4h, 13-(4-fluorophenyl)-9-nitro-9,10-dihydro-9,10-[3,4]epipyrroloanthracene-12,14-dione]",,– (no significant inhibition below 1 μM),
"O=C1C2C3c4ccccc4C([N+](=O)[O-])(c4ccccc43)C2C(=O)N1c1ccc(Cl)cc1 (stereo not drawn) [Compound 4i, 13-(4-chlorophenyl)-9-nitro-9,10-dihydro-9,10-[3,4]epipyrroloanthracene-12,14-dione]",,– (no significant inhibition below 1 μM),
"O=C1C2C3c4ccccc4C([N+](=O)[O-])(c4ccccc43)C2C(=O)N1c1ccc([N+](=O)[O-])cc1 (stereo not drawn) [Compound 4j, 9-Nitro-13-(4-nitrophenyl)-9,10-dihydro-9,10-[3,4]epipyrroloanthracene-12,14-dione]",,– (no significant inhibition below 1 μM),
"O=C1C2C3c4ccccc4C([N+](=O)[O-])(c4ccccc43)C2C(=O)N1c1ccc(I)cc1 (stereo not drawn) [Compound 4k, 13-(4-iodophenyl)-9-nitro-9,10-dihydro-9,10-[3,4]epipyrroloanthracene-12,14-dione]",,– (no significant inhibition below 1 μM),
"CC(C)(C)c1ccc(N2C(=O)C3C4c5ccccc5C([N+](=O)[O-])(c5ccccc54)C3C2=O)cc1 (stereo not drawn) [Compound 4l, 13-(4-(tert-butyl)phenyl)-9-nitro-9,10-dihydro-9,10-[3,4]epipyrroloanthracene-12,14-dione]",,- (no significant inhibition below 1 μM),
"O=C(O)c1cccc(N2C(=O)C3C4c5ccccc5C(c5ccccc54)C3C2=O)c1 (stereo not drawn) [Compound 4m, 3-(12,14-Dioxo-9,10-dihydro-9,10-[3,4]epipyrroloanthracen-13-yl)benzoic acid]",,– (no significant inhibition below 1 μM),
"CCOC(=O)c1cccc(N2C(=O)C3C4c5ccccc5C(c5ccccc54)C3C2=O)c1 (stereo not drawn) [Compound 4n, Ethyl 3-(12,14-dioxo-9,10-dihydro-9,10-[3,4]epipyrroloanthracen-13-yl)benzoate]",,– (no significant inhibition below 1 μM),
"O=C1C2C3c4ccccc4C(c4ccccc43)C2C(=O)N1c1cccc(Cl)c1 (stereo not drawn) [Compound 4p, 13-(3-chlorophenyl)-9,10-dihydro-9,10-[3,4]epipyrroloanthracene-12,14-dione]",,– (no significant inhibition below 1 μM),
"O=C1C2C3c4ccccc4C(c4ccccc43)C2C(=O)N1c1cccc([N+](=O)[O-])c1 (stereo not drawn) [Compound 4q, 13-(3-nitrophenyl)-9,10-dihydro-9,10-[3,4]epipyrroloanthracene-12,14-dione]",,– (no significant inhibition below 1 μM),

Structure (SMILES),"IC50 [1, 2] [nM]",ELISA inhibition ([1]; Table 2),other results
"O=C(O)c1ccc(N2C(=O)C3C4c5ccccc5C(c5ccccc54)C3C2=O)cc1 (stereo not drawn) [Compound 4s, 4-(12,14-Dioxo-9,10-dihydro-9,10-[3,4]epipyrroloanthracen-13-yl)benzoic acid]",,– (no significant inhibition below 1 μM),
"CCOC(=O)c1ccc(N2C(=O)C3C4c5ccccc5C(c5ccccc54)C3C2=O)cc1 (stereo not drawn) [Compound 4t, Ethyl 4-(12,14-dioxo-9,10-dihydro-9,10-[3,4]epipyrroloanthracen-13-yl)benzoate]",,– (no significant inhibition below 1 μM),
"O=C1C2C3c4ccccc4C(c4ccccc43)C2C(=O)N1c1ccc(Cl)cc1 (stereo not drawn) [Compound 4v, 13-(4-chlorophenyl)-9,10-dihydro-9,10-[3,4]epipyrroloanthracene-12,14-dione]",,– (no significant inhibition below 1 μM),
"O=C1C2C3c4ccccc4C(c4ccccc43)C2C(=O)N1c1ccc([N+](=O)[O-])cc1 (stereo not drawn) [Compound 4w, 13-(4-nitrophenyl)-9,10-dihydro-9,10-[3,4]epipyrroloanthracene-12,14-dione]",,– (no significant inhibition below 1 μM),
"O=C1C2C3c4ccccc4C(c4ccccc43)C2C(=O)N1c1ccc(I)cc1 (stereo not drawn) [Compound 4x, 13-(4-iodophenyl)-9,10-dihydro-9,10-[3,4]epipyrroloanthracene-12,14-dione]",,– (no significant inhibition below 1 μM),
"CC(C)(C)c1ccc(N2C(=O)C3C4c5ccccc5C(c5ccccc54)C3C2=O)cc1 (stereo not drawn) [Compound 4y, 13-(4-(tert-butyl)phenyl)-9,10-dihydro-9,10-[3,4]epipyrroloanthracene-12,14-dione]",,- (no significant inhibition below 1 μM),
N#CCCn1cc(C(=O)Nc2ccc(C(=O)O)cc2)c(-c2ccccc2)n1 [Compound 5],0.6,,
Cc1ccc(-c2ccc(=O)n(CC(=O)Nc3ccc(-n4cnnn4)cc3)n2)cc1 [Compound 6],0.555,,
O=C(Cc1cc(O)n[nH]1)N/N=C/c1c(Cl)cccc1Cl [Compound 7],19,,
Nc1nnn(CC(=O)N/N=C/c2cccs2)n1 [Compound 9],7.7,,
O=C(O)CNC(=O)CCCn1c(=O)[nH]c2ccccc2c1=O [Compound 10],42.6,,
O=C(O)CCNC(=O)Cn1nnc2ccccc2c1=O [Compound 11],6.89,,
COc1ccc(-c2noc(CCCC(=O)O)n2)cc1 [Compound 12],264,,
Cc1nc2sc3c(c2c2nc(C(=O)NCCOCCO)nn12)C[C@@H](C)CC3 [Compound 13],126,,
CCCN1CCc2c(sc3c2c(NCCc2ccccc2)nc2nnnn23)C1 [Compound 14],77,,
